Results reported in PMC9317316, “Synthesis and Evaluation of Some New 4H-Pyran Derivatives as Antioxidant, Antibacterial and Anti-HCT-116 Cells of CRC, with Molecular Docking, Antiproliferative, Apoptotic and ADME Investigations” (Pharmaceuticals, 2022).
Where two headings read alike, the source gives them in different places.

What was measured:
[1] = system: S. enteric (ATCC 43972); assay: Antibacterial viability (CFU) assay, IC50; assay type: cell-based; conditions: read-out: IC50
Method: (§1) The results for the in vitro antibacterial properties of the synthesized compounds against five Gram-positive and four Gram-negative human-pathogenic strains, which were assessed by both the agar diffusion method (based on inhibition zone (IZ)) and the broth dilution bioassay (for the determination of the half-maximal inhibitory concentration (IC50) values), using ampicillin as the reference antibiotic drug, are shown in Table 2 and Table 3.
(§2) The antibacterial activity of all synthesized compounds was evaluated against the Gram-negative strains E. coli (ATCC 25966), K. pneumonia (ATCC 700603), P. aeruginosa (ATCC 27853) and S. enteric (ATCC 43972) and against the Gram-positive strains B. cereus (ATCC 14579), B. subtilis (ATCC 6633), E. faecalis (ATCC 29122), S. aureus (ATCC 25923) and S. epidermidis (ATCC 14990), using the agar diffusion method through measuring the appearance of the inhibition zone on the surface of the top agar, as reported by Berghe and Vlietinck. Ampicillin (10 µg/well) was used as the positive reference standard. Bacterial viability was also investigated by determining the colony-forming ability (CFU) of bacteria incubated at different time intervals without or with appropriate amounts of the compound, which were mixed with 2 ×10^7 CFU/mL in sterile BHI and incubated under shaking for 60 min at 37 °C. Samples were serially diluted into sterile BHI, streaked onto media agar plates and incubated for 24 h at 37 °C. The antibacterial potency of the tested compounds was expressed as the residual number of CFUs with reference to the initial inoculums. The results presented as the half-maximal (50 %) inhibitory concentration (IC50) values are the means of three different measurements.

[2] = system: S. aureus (ATCC 25923); assay: Antibacterial viability (CFU) assay, IC50; assay type: cell-based; conditions: Staphylococcus aureus, ATCC25923
Method: as §1, §2

[3] = system: K. pneumonia (ATCC 700603); assay: Antibacterial viability (CFU) assay, IC50; assay type: cell-based; conditions: Klebsiella pneumoniae, ATCC700603
Method: as §1, §2

[4] = system: E. coli (ATCC 25966); assay: Antibacterial viability (CFU) assay, IC50; assay type: cell-based; conditions: Escherichia coli, ATCC25966; E. coil (ATCC 25966)
Method: as §1, §2

[5] = system: E. faecalis (ATCC 29122); assay: Antibacterial viability (CFU) assay, IC50; assay type: cell-based; conditions: Enterococcus faecalis, ATCC29122
Method: as §1, §2

[6] = system: S. epidermidis (ATCC 14990); assay: Antibacterial viability (CFU) assay, IC50; assay type: cell-based; conditions: Staphylococcus epidermidis, ATCC14990
Method: as §1, §2

[7] = system: P. aeruginosa (ATCC 27853); assay: Antibacterial viability (CFU) assay, IC50; assay type: cell-based; conditions: Pseudomonas aeruginosa, ATCC27853
Method: as §1, §2

[8] = system: B. cereus (ATCC 14579); assay: Antibacterial viability (CFU) assay, IC50; assay type: cell-based; conditions: Bacillus cereus, ATCC14579
Method: as §1, §2

[9] = system: B. subtilis (ATCC 6633); assay: Antibacterial viability (CFU) assay, IC50; assay type: cell-based; conditions: Bacillus subtilis, ATCC6633, B. subtilis (ATCC 6633)
Method: as §1, §2

[10] = system: HCT-116 cells; assay: Cell viability (cytotoxicity, LDH release) assay; assay type: cell-based; conditions: Homo sapiens, 24 h; for viability at 100 µg/mL: read-out: percent of viable cells
Method: The synthesized compounds were also examined at four concentrations (10, 25, 50 and 100 µg/mL) for their cytotoxic effects on human colorectal cancer HCT-116 cells after their incubation together for 24 h.
Cytotoxic potency was examined for a human colon cancer cell line HCT-116 (American Type Culture Collection; Manassas, VA, USA) using various amounts of each compound (10, 25, 50 and 100 µg). Samples were diluted in Dulbecco’s Modified Eagle’s Medium, consisting of 10% Fetal Bovine Serum, and added to cells grown and cultured for 24 h in a 5% CO2-humidified incubator at 37 °C. Then, the activity of lactate dehydrogenase released from damaged cells was determined in the collected supernatant aliquots using an ELISA endpoint assay (Benchmark Plus, Bio-Rad, Hercules, CA, USA). As positive and negative controls, respectively, 0.1% Triton X-100 in the assay medium and the assay medium only were used. Cell viability, shown as mean values ± SDs (n = 3), was expressed as a relative percentage of the OD values determined at 600 nm in compound-treated cells and the control.

[11] = system: S. enteric (ATCC 43972); assay: Antibacterial agar diffusion method (inhibition zone); assay type: cell-based
Method: as §1, §2

[12] = system: S. aureus (ATCC 25923); assay: as above; assay type: cell-based
Method: as §1, §2

[13] = system: K. pneumonia (ATCC 700603); assay: as above; assay type: cell-based
Method: as §1, §2

[14] = system: E. coli (ATCC 25966); assay: as above; assay type: cell-based; conditions: E. coil (ATCC 25966)
Method: as §1, §2

[15] = system: E. faecalis (ATCC 29122); assay: as above; assay type: cell-based
Method: as §1, §2

[16] = system: S. epidermidis (ATCC 14990); assay: as above; assay type: cell-based
Method: as §1, §2

[17] = system: P. aeruginosa (ATCC 27853); assay: as above; assay type: cell-based
Method: as §1, §2

[18] = system: B. cereus (ATCC 14579); assay: as above; assay type: cell-based
Method: as §1, §2

[19] = system: B. subtilis (ATCC 6633); assay: as above; assay type: cell-based
Method: as §1, §2

[20] = Reducing power assay (FRAC, Fe3+ to Fe2+); conditions: 0-1 mg/mL, absorbance 700 nm
Method: Secondly, FRAC was determined over the concentration range of 0.0−1 mg/mL via monitoring Fe^3+−Fe^2+ transformation in the presence of the studied compounds and the reference antioxidant BHT to estimate the values of efficient concentration (EC50), expressed in mM.
The reducing power of the studied compounds was assessed according to Oyaizu’s method. Briefly, different concentrations (ranging from 0 to 1 mg/mL) of each tested compound were first mixed with 1 mL of 0.2 M sodium phosphate buffer (pH 6.6) and 1 mL of 1% potassium ferricyanide (K3Fe(CN)6) and incubated at 50 °C for 20 min. After the addition of 1.25 mL of 20% trichloroacetic acid (TCA), the mixture was centrifuged for 10 min at 3000 rpm and the upper layer solution was then mixed with 0.5 mL of 0.1% fresh ferric chloride and an equal volume of deionized water. Finally, the absorption of the resulting mixture was measured at 700 nm using a UV spectrophotometer against distilled water as the blank, while butylated hydroxytoluene (BHT) was used as a positive control. The sample ferric reducing power capability was indicated by increased absorbance.

[21] = DPPH radical scavenging assay; conditions: for IC50: 0.03 to 1 mg/mL, 1 h, mean ± SD, triplicate, read-out: IC50 (mM) for DPPH Scavenging Potency
Method: The IC50 values for DPPH were calculated from the plot of the scavenging effect against the compound concentration.
The compounds’ capacities to scavenge the stable radical 1,1 diphenyl-2-picrylhydrazyl (DPPH) formed in solution by donation of a hydrogen atom or an electron was investigated according to the method described by Bersuder and coworkers. Due to the fact that the initial blue/purple solution of diphenyl picrylhydrazine changes to yellow in the presence of compounds with a capacity to scavenge DPPH free radicals, this reaction is used as a measure of a compound’s ability to scavenge any free radical. Briefly, a 0.5 mL volume of DPPH ethanolic solution was mixed with an equal volume of each sample concentration (0.03 to 1 mg/mL), shaken strongly and incubated at room temperature for 1 h in darkness. The absorbance of the residual DPPH radicals was measured at 519 nm and compared to that of the control (without the tested compound). DPPH radical scavenging was calculated using the following formula: Scavenging effect (%) = (1 − Acompound/AControl) × 100, where Acompound and Acontrol are the absorbances of the tested compound and of the control, respectively. A plot of the scavenging effect (%) versus the sample concentration was also performed to determine the compound concentration providing 50% inhibition (IC50).

[22] = read-out: Mean IC50 (µM) of cytotoxicity
[23] = read-out: Mean IC50 (µg/mL) of cytotoxicity

SMILES | IC50 [1] [µM] | IC50 [2] [µM] | IC50 [3] [µM] | IC50 [4] [µM] | IC50 [5] [µM] | IC50 [6] [µM] | IC50 [7] [µM] | IC50 [8] [µM] | IC50 [9] [µM] | viability at 100 µg/mL [10] [%] | IC50 [10, 22] [µM] | IC50 [10, 23] [µg/mL] | IZ (mm) [11] [mm] | IZ (mm) [12] [mm] | IZ (mm) [13] [mm] | IZ (mm) [14] [mm] | IZ (mm) [15] [mm] | IZ (mm) [16] [mm] | IZ (mm) [17] [mm] | IZ (mm) [18] [mm] | also measured
COC(=O)C1=C(C)OC(N)=C(C#N)C1c1ccccc1C(=O)O (centres unmarked) [4a, 6-Amino-4-(2-carboxy-phenyl)-5-cyano-2-methyl-4H-pyran-3-carboxylic acid methyl ester] | 120 ± 1.91 | 41.2 ± 2.48 | 131 ± 3.5 | 138 ± 6.68 | 49.6 ± 1.81 | 42.3 ± 1.33 | 37.6 ± 0.5 | 71.8 ± 2.04 | 64.4 ± 3.37 | 46 | 165 ± 14.4 | 52 ± 4.54 | 4.5 ± 0.7 | 8.00 ± 1.41 | 2.5 ± 0.7 | 4.5 ± 0.71 | 9.00 ± 1.41 | 9.50 ± 0.71 | 5.5 ± 0.7 | 7.50 ± 0.71 | IZ (mm) [19]: 5.20 ± 0.28 mm; EC50 [20]: 0.827 ± 0.045 mM; melting point: 216 to 218 °C; IC50 [21]: 2.29 ± 0.134 mM; DPPH Radical Scavenging Effenciency (%) at 1 mg/mL [21]: 24.15 ± 1.62%
COc1cccc(C2C(C#N)=C(N)OC(C)=C2C(=O)OCc2ccccc2)c1[N+](=O)[O-] (centres unmarked) [4c, 6-Amino-5-cyano-4-(3-methoxy-2-nitro-phenyl)-2-methyl-4H-pyran-3-carboxylic acid benzyl ester] | 100 ± 2.61 | 37 ± 2.02 | 112 ± 1.42 | 93.7 ± 4.98 | 41.1 ± 2.18 | 30.4 ± 1 | 85.9 ± 2.61 | 44.5 ± 0.83 | 46.3 ± 1.68 | 11 to 32.5 | 102 ± 4.82 | 43 ± 2.03 | 8.5 ± 0.7 | 15.50 ± 0.71 | 3.5 ± 0.7 | 2.5 ± 0.71 | 10.00 ± 1.41 | 16.65 ± 0.50 | 7.5 ± 0.7 | 14.00 ± 1.41 | IZ (mm) [19]: 11.00 ± 1.41 mm; EC50 [20]: 1.23 ± 0.067 mM; melting point: 190 to 192 °C; IC50 [21]: 2.24 ± 0.05 mM; DPPH Radical Scavenging Effenciency (%) at 1 mg/mL [21]: 57.10 ± 1.56%
